{"source": "patent US6562827B1", "about": "“Heterocyclically substituted amides used as calpain inhibitors” (Abbott Laboratories, priority 1998, dated 2003)", "origin": "cited, not measured here", "key": {"[1]": {"test_system": "calpain", "settings": "result in words, from the literature"}, "[2]": {"settings": "known calpain inhibitors"}, "[3]": {"test_system": "calpain", "settings": "known calpain inhibitors"}, "[4]": {"test_system": "tyrosine kinase pp60src cleaved by calpain", "settings": "activated platelets; Oda et al. J. Biol. Chem. 1993"}}}
{"compound": "Ph—CONH—CH(CH2Ph)—CO—COCOOCH3", "values": [{"measurement": "calpain inhibition", "setting": "[1]", "value": "only a weak calpain inhibitor"}]}
{"compound": "CC(C)C[C@H](NC(=O)[C@H]1O[C@@H]1C(=O)O)C(=O)NCCCCN=C(N)N", "note": "[E 64]", "values": [{"measurement": "crossing of cell membranes", "setting": "[2]", "value": "only cross the cell membranes with difficulty"}, {"measurement": "action in cells", "setting": "[3]", "value": "only a poor action in cells"}, {"measurement": "calpain inhibition", "setting": "[1]", "value": "good calpain inhibitors"}]}
{"compound": "CC(=O)N[C@@H](CC(C)C)C(=O)N[C@@H](CC(C)C)C(=O)N[C@H](C=O)CCCNC(=N)N", "note": "[leupeptin]", "values": [{"measurement": "crossing of cell membranes", "setting": "[2]", "value": "only cross the cell membranes with difficulty"}, {"measurement": "action in cells", "setting": "[3]", "value": "only a poor action in cells"}, {"measurement": "calpain inhibition", "setting": "[1]", "value": "good calpain inhibitors"}]}
{"compound": "CCCC[C@@H](C=O)NC(=O)[C@H](CC(C)C)NC(=O)OCc1ccccc1", "note": "[calpeptin]", "values": [{"measurement": "cleavage of pp60src", "setting": "[4]", "value": "can be prevented"}]}
